Results taken from patent US20150218212A1, “FLUORINATED EPOXYKETONE-BASED TETRAPEPTIDE COMPOUNDS AND USES THEREOF AS PROTEASOME INHIBITORS” (FLUORINOV PHARMA INC., priority 2012, published 2015).

What was measured:
Assay type in all cases: cell-based, human
NCI-H522 = experiment: NCI screening panel, NCI-H522 (Non-Small Cell Lung Cancer)
Description: (§1) Representative compounds of Formula I were screened using the National Cancer Institute (NCI) screening panel, which consists of a panel of human tumor cell lines, representing leukemia, melanoma, and cancers of the lung, colon, ovary, breast, prostate and renal system.
(§2) After 24 h, two plates of each cell line are fixed in situ with TCA, to represent a measurement of the cell population for each cell line at the time of drug addition (Tz). Experimental drugs are solubilised in dimethyl sulfoxide at 400-fold the desired final maximum test concentration and stored frozen prior to use. At the time of drug addition, an aliquot of frozen concentrate is thawed and diluted to twice the desired final maximum test concentration with complete medium containing 50 μg/mL gentamicin. Additional four, 10-fold or ½ log serial dilutions are made to provide a total of five drug concentrations plus control. Aliquots of 100 μl of these different drug dilutions are added to the appropriate microtiter wells already containing 100 μl of medium, resulting in the required final drug concentrations.
(§3) Following drug addition, the plates are incubated for an additional 48 h at 37° C., 5% CO2, 95% air, and 100% relative humidity. For adherent cells, the assay is terminated by the addition of cold TCA (trichloroacetic acid). Cells are fixed in situ by the gentle addition of 50 μl of cold 50% (w/v) TCA (final concentration, 10% TCA) and incubated for 60 minutes at 4° C. The supernatant is discarded, and the plates are washed five times with tap water and air dried. Sulforhodamine B (SRB) solution (100 μl) at 0.4% (w/v) in 1% acetic acid is added to each well, and plates are incubated for 10 minutes at room temperature. After staining, unbound dye is removed by washing five times with 1% acetic acid and the plates are air dried. Bound stain is subsequently solubilised with 10 mM trizma base, and the absorbance is read on an automated plate reader at a wavelength of 515 nm. For suspension cells, the methodology is the same except that the assay is terminated by fixing settled cells at the bottom of the wells by gently adding 50 μl of 80% TCA (final concentration, 16% TCA). Using the seven absorbance measurements [time zero, (Tz), control growth, (C), and test growth in the presence of drug at the five concentration levels (Ti)], the percentage growth is calculated at each of the drug concentrations levels. Percentage growth inhibition is calculated as: [(Ti−Tz)/(C−Tz)]×100 for concentrations for which Ti>/=Tz and [(Ti−Tz)/Tz]×100 for concentrations for which Ti<Tz.
(§4) Three dose response parameters are calculated for each experimental agent. Growth inhibition of 50% (GI50) is calculated from [(Ti−Tz)/(C−Tz)]×100=50, which is the drug concentration resulting in a 50% reduction in the net protein increase (as measured by SRB staining) in control cells during the drug incubation. The drug concentration resulting in total growth inhibition (TGI) is calculated from Ti=Tz. The LC50 (concentration of drug resulting in a 50% reduction in the measured protein at the end of the drug treatment as compared to that at the beginning) indicating a net loss of cells following treatment is calculated from [(Ti−Tz)/Tz]×100=−50. Values are calculated for each of these three parameters if the level of activity is reached. However, if the effect is not reached or is exceeded, the value for that parameter is expressed as greater or less than the maximum or minimum concentration tested.

COLO 205 = experiment: NCI screening panel, COLO 205 (Colon Cancer)
Description: as §1, §2, §3, §4

OVCAR-3 = experiment: NCI screening panel, OVCAR-3 (Ovarian Cancer)
Description: as §1, §2, §3, §4

SK-MEL-5 = experiment: NCI screening panel, SK-MEL-5 (Melanoma)
Description: as §1, §2, §3, §4

UO-31 = experiment: NCI screening panel, UO-31 (Renal Cancer)
Description: as §1, §2, §3, §4

LOX IMVI = experiment: NCI screening panel, LOX IMVI (Melanoma)
Description: as §1, §2, §3, §4

MDA-MB-468 = experiment: NCI screening panel, MDA-MB-468 (Breast Cancer)
Description: as §1, §2, §3, §4

IGROV1 = experiment: NCI screening panel, IGROV1 (Ovarian Cancer)
Description: as §1, §2, §3, §4

Compound | Log10GI50 (NCI-H522) | Log10LC50 (NCI-H522) | Log10TGI50 (NCI-H522) | Log10GI50 (COLO 205) | Log10LC50 (COLO 205) | Log10TGI50 (COLO 205) | Log10GI50 (OVCAR-3) | Log10LC50 (OVCAR-3) | Log10TGI50 (OVCAR-3) | Log10GI50 (SK-MEL-5) | Log10LC50 (SK-MEL-5) | Log10TGI50 (SK-MEL-5) | Log10GI50 (UO-31) | Log10LC50 (UO-31) | Log10TGI50 (UO-31) | Log10GI50 (LOX IMVI) | Log10LC50 (LOX IMVI) | Log10TGI50 (LOX IMVI) | Log10GI50 (MDA-MB-468) | Log10LC50 (MDA-MB-468) | other results
CC(C)C[C@H](NC(=O)[C@H](Cc1ccccc1)NC(=O)[C@H](COC(F)F)NC(=O)[C@H](COC(F)F)NC(=O)CN1CCOCC1)C(=O)[C@@]1(C)CO1 [Example 11, (2S)-2-[[(2S)-3-(difluoromethoxy)-2-[[(2S)-3-(difluoromethoxy)-2-[(2-morpholinoacetyl)-amino]propanoyl]amino]propanoyl]amino]-N-[(1S)-3-methyl-1-[(2R)-2-methyloxirane-2-carbonyl]butyl]-3-phenyl-propanamide] | −7.72 | >−4.00 | −7.15 | −7.21 | >−4.00 | −5.31 | −7.66 | −6.82 | −7.31 | −7.45 | −6.23 | −6.83 | −6.17 | −4.24 | −5.47 | −7.79 | −7.09 | −7.44 | −7.62 | −4.67 | Log10TGI50 (MDA-MB-468): −7.06; Log10GI50 (IGROV1): −7.38; Log10LC50 (IGROV1): >−4.00; Log10TGI50 (IGROV1): −4.36
CC(C)C[C@H](NC(=O)[C@H](COC(F)F)NC(=O)[C@H](COC(F)F)NC(=O)[C@H](COC(F)F)NC(=O)CN1CCOCC1)C(=O)[C@@]1(C)CO1 [Example 17, (2S)-3-(difluoromethoxy)-N-[(1S)-1-(difluoromethoxymethyl)-2-[[(1S)-1-(difluoro-methoxymethyl)-2-[[(1S)-3-methyl-1-[(2R)-2-methyloxirane-2-carbonyl]butyl]amino]-2-oxo-ethyl]amino]-2-oxo-ethyl]-2-[(2-mor-pholinoacetyl)amino]-propanamide] | −7.40 | −5.25 | −6.64 | −6.62 | >−4.00 | −4.76 | −7.30 | −6.05 | −6.65 | −7.10 | −6.01 | −6.53 | −5.40 | −4.00 | −4.65 | −7.36 | −6.36 | −6.81 | −7.04 | >−4.00 | Log10TGI50 (MDA-MB-468): −6.17; Log10GI50 (IGROV1): −6.87; Log10LC50 (IGROV1): >−4.00; Log10TGI50 (IGROV1): −5.82
